Measured values as given in patent publication US9914732B2, “Diazabicyclo[4.3.1]decane derivatives for treatment of psychiatric disorders” (Max-Planck-Gesellschaft zur Forderung der Wissenschaften …, priority 2014, dated 2018).

Experiments:
FKBP51 = molecular target: T1, FKBP51 (Homo sapiens, UniProt Q13451); experiment: Fluorescence polarization (FP) assay, binding to the FK506-binding domain of FKBP51; settings: FK506-binding domain of FKBP51 (FKBP51FK1), competition with fluorescent ligand 2b
T1 sequence (Q13451 42-130 limits assumed): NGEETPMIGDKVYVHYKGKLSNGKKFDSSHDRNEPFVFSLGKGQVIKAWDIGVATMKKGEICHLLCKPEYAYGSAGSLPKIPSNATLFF
Procedure, shortened: (§1)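 Competitive FP with fluorescent ligand 2b at 20 nM (2× concentration) and FK1 domain at 280 nM (FKBP51) or 400 nM (FKBP52) in 20 mM HEPES pH 8, 0.01% Triton-X100. Anisotropy read after 30 min at room temperature (ex 485, em 535 nm), in duplicate; IC50 by four-parameter fit, Ki via Wang competitive equation.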

FKBP52 = molecular target: T2, FKBP52 (Homo sapiens, UniProt Q02790); experiment: Fluorescence polarization (FP) assay, binding to the FK506-binding domain of FKBP52; settings: FK506-binding domain of FKBP52 (FKBP52FK1), competition with fluorescent ligand 2b
T2 sequence (Q02790 50-138 limits assumed): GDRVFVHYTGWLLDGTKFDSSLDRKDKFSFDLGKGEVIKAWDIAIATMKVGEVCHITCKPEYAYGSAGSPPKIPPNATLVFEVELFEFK
Procedure, shortened: as §1

SMILES	Ki (FKBP51) [nM]	Ki (FKBP52) [nM]
COCCN1C[C@H](CCO)[C@H]2CCC[C@@H](C1=O)N2S(=O)(=O)c1cc(Cl)cc(Cl)c1 [Compound B8, (1S,5S,6R)-10-((3,5-dichlorophenyl)sulfonyl)-5-(2-hydroxyethyl)-3-(2-methoxyethyl)-3,10-diazabicyclo[4.3.1]decan-2-one]	100 to 500	100 to 500
COCCN1C[C@H](C=O)[C@H]2CCC[C@@H](C1=O)N2S(=O)(=O)c1cc(Cl)cc(Cl)c1 [Compound B9, (1S,5S,6R)-10-((3,5-dichlorophenyl)sulfonyl)-3-(2-methoxyethyl)-2-oxo-3,10-diazabicyclo[4.3.1]decane-5-carbaldehyde]	100 to 500	100 to 500
COCCN1C[C@H](C(N)=O)[C@H]2CCC[C@@H](C1=O)N2S(=O)(=O)c1cc(Cl)cc(Cl)c1 [Compound B11, (1S,5S,6R)-10-((3,5-dichlorophenyl)sulfonyl)-3-(2-methoxyethyl)-2-oxo-3,10-diazabicyclo[4.3.1]decane-5-carboxamide]	100 to 500	100 to 500
CNC[C@H]1CN(CCOC)C(=O)[C@@H]2CCC[C@H]1N2S(=O)(=O)c1cc(Cl)cc(Cl)c1 [Compound B12, (1S,5S,6R)-10-((3,5-dichlorophenyl)sulfonyl)-3-(2-methoxyethyl)-5-((methylamino)methyl)-3,10-diazabicyclo[4.3.1]decan-2-one]	100 to 500	100 to 500
CC[C@H]1CN(CCOC)C(=O)[C@@H]2CCC[C@H]1N2S(=O)(=O)c1cc(Cl)cc(Cl)c1 [Compound B15, (1S,5S,6R)-10-((3,5-dichlorophenyl)sulfonyl)-5-ethyl-3-(2-methoxyethyl)-3,10-diazabicyclo[4.3.1]decan-2-one]	≤ 100	≤ 100
CCOCCN1C[C@H](C(O)CO)[C@H]2CCC[C@@H](C1=O)N2S(=O)(=O)c1cc(Cl)cc(Cl)c1 (stereo partly drawn) [Compound C3, (1S,5S,6R)-10-((3,5-dichlorophenyl)sulfonyl)-5-(1,2-dihydroxyethyl)-3-(2-ethoxyethyl)-3,10-diazabicyclo[4.3.1]decan-2-one]	100 to 500	100 to 500
COc1ccc(OCCN2C[C@H](C(C)(C)O)[C@H]3CCC[C@@H](C2=O)N3S(=O)(=O)c2cc(Cl)cc(Cl)c2)cc1OC [Compound D3, (1S,5S,6R)-10-((3,5-dichlorophenyl)sulfonyl)-3-(2-(3,4-dimethoxyphenoxy)ethyl)-5-(2-hydroxypropan-2-yl)-3,10-diazabicyclo[4.3.1]decan-2-one]	≤ 100	≤ 100
COc1ccc(OCCN2C[C@H](CCO)[C@H]3CCC[C@@H](C2=O)N3S(=O)(=O)c2cc(Cl)cc(Cl)c2)cc1OC [Compound D8, (1S,5S,6R)-10-((3,5-dichlorophenyl)sulfonyl)-3-(2-(3,4-dimethoxyphenoxy)ethyl)-5-(2-hydroxyethyl)-3,10-diazabicyclo[4.3.1]decan-2-one]	≤ 100	≤ 100
O=C1NC[C@H](O)[C@H]2CCC[C@@H]1N2S(=O)(=O)c1cc(Cl)cc(Cl)c1 [Compound G6, (1S,5S,6R)-10-((3,5-dichlorophenyl)sulfonyl)-5-hydroxy-3,10-diazabicyclo[4.3.1]decan-2-one]	500 to 1000	100 to 500
N[C@@H]1CNC(=O)[C@@H]2CCC[C@H]1N2S(=O)(=O)c1cc(Cl)cc(Cl)c1 [Compound H1.2, (1S,5R,6R)-5-amino-10-((3,5-dichlorophenyl)sulfonyl)-3,10-diazabicyclo[4.3.1]decan-2-one]	1000 to 5000	1000 to 5000
CO[C@H]1CN(C)C(=O)[C@@H]2CCC[C@H]1N2S(=O)(=O)c1cc(Cl)cc(Cl)c1 [Compound H1.3, (1S,5S,6R)-10-((3,5-dichlorophenyl)sulfonyl)-5-methoxy-3-methyl-3,10-diazabicyclo[4.3.1]decan-2-one]	500 to 1000	500 to 1000
O=C1NC[C@@H](O)[C@H]2CCC[C@@H]1N2S(=O)(=O)c1cc(Cl)cc(Cl)c1 [Compound H1.4, (1S,5R,6R)-10-((3,5-dichlorophenyl)sulfonyl)-5-hydroxy-3,10-diazabicyclo[4.3.1]decan-2-one]	1000 to 5000	1000 to 5000
COCCO[C@H]1CN(CCOC)C(=O)[C@@H]2CCC[C@H]1N2S(=O)(=O)c1cc(Cl)cc(Cl)c1 [Compound H2.1, (1S,5S,6R)-10-((3,5-dichlorophenyl)sulfonyl)-5-(2-methoxyethoxy)-3-(2-methoxyethyl)-3,10-diazabicyclo[4.3.1]decan-2-one]	100 to 500	100 to 500
COCO[C@H]1CNC(=O)[C@@H]2CCC[C@H]1N2S(=O)(=O)c1cc(Cl)cc(Cl)c1 [Compound H2.2, (1S,5S,6R)-10-((3,5-dichlorophenyl)sulfonyl)-5-(methoxymethoxy)-3,10-diazabicyclo[4.3.1]decan-2-one]	500 to 1000	500 to 1000
COc1ccc(OCCN2C[C@H](O)[C@H]3CCC[C@@H](C2=O)N3S(=O)(=O)c2cc(Cl)cc(Cl)c2)cc1OC [Compound H2.3, (1S,5S,6R)-10-((3,5-dichlorophenyl)sulfonyl)-3-(2-(3,4-dimethoxyphenoxy)ethyl)-5-hydroxy-3,10-diazabicyclo[4.3.1]decan-2-one]	≤ 100	100 to 500
C=C[C@@H]1CN(CCCCOC)C(=O)[C@@H]2CCC[C@H]1N2S(=O)(=O)c1cc(Cl)cc(Cl)c1 [Compound J3, (1S,5R,6R)-10-((3,5-dichlorophenyl)sulfonyl)-3-(4-methoxybutyl)-5-vinyl-3,10-diazabicyclo[4.3.1]decan-2-one]	500 to 1000	500 to 1000
O=C1[C@@H]2CCC[C@H]([C@H](CO)CN1CCCO)N2S(=O)(=O)c1cc(Cl)cc(Cl)c1 [Compound J5, (1S,5R,6R)-10-((3,5-dichlorophenyl)sulfonyl)-5-(hydroxymethyl)-3-(3-hydroxypropyl)-3,10-diazabicyclo[4.3.1]decan-2-one]	500 to 1000	500 to 1000
COCCCCN1C[C@@H](CO)[C@H]2CCC[C@@H](C1=O)N2S(=O)(=O)c1cc(Cl)cc(Cl)c1 [Compound J7, (1S,5R,6R)-10-((3,5-dichlorophenyl)sulfonyl)-5-(hydroxymethyl)-3-(4-methoxybutyl)-3,10-diazabicyclo[4.3.1]decan-2-one]	500 to 1000	500 to 1000
O=C1[C@@H]2CCC[C@H]([C@H](CO)CN1Cc1ccccn1)N2S(=O)(=O)c1cc(Cl)cc(Cl)c1 [Compound J8, (1S,5R,6R)-10-((3,5-dichlorophenyl)sulfonyl)-5-(hydroxymethyl)-3-(pyridin-2-ylmethyl)-3,10-diazabicyclo[4.3.1]decan-2-one]	≤ 100	≤ 100
C=C[C@@H]1CN(CC(=O)OCC)C(=O)[C@@H]2CCC[C@H]1N2S(=O)(=O)c1cc(Cl)cc(Cl)c1 [Compound J9, ethyl 2-((1S,5R,6R)-10-((3,5-dichlorophenyl)sulfonyl)-2-oxo-5-vinyl-3,10-diazabicyclo[4.3.1]decan-3-yl)acetate]	100 to 500	100 to 500
C=C[C@@H]1CN(Cc2ccncn2)C(=O)[C@@H]2CCC[C@H]1N2S(=O)(=O)c1cc(Cl)cc(Cl)c1 [Compound J15, (1S,5R,6R)-10-((3,5-dichlorophenyl)sulfonyl)-3-(pyrimidin-4-ylmethyl)-5-vinyl-3,10-diazabicyclo[4.3.1]decan-2-one]	100 to 500	100 to 500
